ChEMBL document CHEMBL1201862, “PubChem BioAssay data set” (2004)
Activity calls are given as the source filed them.

How the values were obtained:
Nonstructural protein 1 = Nonstructural protein 1 (Influenza A virus, UniProt Q194T2); type: functional, Influenza A virus (A/California/07/2009(H1N1))
[1] = viability loss in HepG2 hepatoma cells – cell-based, ATP luminescence, cherry-pick, activator set 2, cytotoxicity control, dose response (AID 1053143); type: functional
cells [2] = type: functional, cell-based
cells [3] = type: functional, cell-based; remark: listed apart in the source
[4] = target: T1, Dual specificity protein phosphatase 6 (Rattus norvegicus, UniProt Q64346); test: inhibition of rat DUSP6 enzyme activity – biochemical, in vitro, primary screen (AID 425)
T1 sequence (Q64346 whole entry): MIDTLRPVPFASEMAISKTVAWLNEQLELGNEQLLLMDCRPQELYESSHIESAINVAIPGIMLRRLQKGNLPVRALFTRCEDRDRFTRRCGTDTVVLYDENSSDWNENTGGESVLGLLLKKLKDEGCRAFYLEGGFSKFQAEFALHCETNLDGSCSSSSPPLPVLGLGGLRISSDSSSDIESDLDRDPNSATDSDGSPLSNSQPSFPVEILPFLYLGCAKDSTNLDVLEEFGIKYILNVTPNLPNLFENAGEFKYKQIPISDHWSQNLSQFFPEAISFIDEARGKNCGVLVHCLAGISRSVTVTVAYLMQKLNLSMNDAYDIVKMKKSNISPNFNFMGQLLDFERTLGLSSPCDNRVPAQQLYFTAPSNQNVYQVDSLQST

[5] = target: Induced myeloid leukemia cell differentiation protein Mcl-1 (Homo sapiens, UniProt Q07820); type: functional
[6] = target: Eukaryotic translation initiation factor 4E (Mus musculus, UniProt P63073); test: blockers of eIF4G binding by eIF4E – biochemical, TR-FRET, dose response (AID 855); type: functional;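 also: potency for disrupting eIF4E binding to eIF4GI seen as loss of FRET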
Protein Tat = Protein Tat (Human immunodeficiency virus type 1 group M subtype B (isolate HXB2)(HIV-1), UniProt P04608); type: functional;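 also: tat binding to TAR RNA read out by fluorescence polarization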
[7] = viability loss in HEK293 kidney cells – cell-based, cherry-picks, set 5, cytotoxicity control, dose response (AID 1053117); type: functional
[8] = MITF Orthogonal Assay: SK-MEL-5 CTG Assay Measured in Cell-Based System Using Plate Reader - 2084-02_Inhibitor_Dose_DryPowder_Activity_Set7.; type: functional
[9] = MITF: Counter assay: A375 proliferation Measured in Cell-Based System Using Plate Reader - 2084-03_Inhibitor_Dose_DryPowder_Activity_Set8.; type: functional; details: A-375
[10] = inhibitors of TRPM1-promoter reporter in SK-MEL-5 – cell-based, luciferase, dry powder, set 8, MITF inhibitor project, dose response (AID 624430); type: functional
[11] = blockers of HIV-1 ZM109 envelope-driven cell-cell fusion – HeLa effector, CEM target cells, luciferase, cherry-pick, dose response (AID 652058); type: functional, cell-based;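 also: luciferase signal from HIV-1 Env mediated cell-cell fusion of effector and target cells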
[12] = target: T2, Tyrosine-protein phosphatase non-receptor type 7 (Homo sapiens, UniProt P35236); test: HePTP tyrosine phosphatase activity blockers – biochemical, absorbance, leukemia target, primary screen (AID 521); type: functional
T2 sequence (P35236 whole entry): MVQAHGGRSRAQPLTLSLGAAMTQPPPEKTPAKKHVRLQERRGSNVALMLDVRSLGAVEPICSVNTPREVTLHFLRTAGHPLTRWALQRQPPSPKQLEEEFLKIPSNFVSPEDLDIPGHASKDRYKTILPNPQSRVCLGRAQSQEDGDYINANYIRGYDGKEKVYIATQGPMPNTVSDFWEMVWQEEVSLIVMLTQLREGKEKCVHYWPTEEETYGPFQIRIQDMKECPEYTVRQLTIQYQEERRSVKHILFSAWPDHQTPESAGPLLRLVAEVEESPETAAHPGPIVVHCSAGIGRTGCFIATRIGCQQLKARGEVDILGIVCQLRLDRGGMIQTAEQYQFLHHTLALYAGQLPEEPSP

[13] = HIV-1 AD8 envelope cell-cell fusion blockers – cherry-pick, dose response (AID 652062); type: functional, cell-based;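 also: luciferase signal from cell-cell fusion driven by HIV-1 clade B AD8 Env; potency is for inhibitors of fusion seen as a drop in luminescence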
[14] = toxicity to human hepatoma HepG2 cells – cell-based, cherry-picked samples, cytotoxicity control, dose response (AID 1159577); type: functional
[15] = P. falciparum Dd2 growth inhibitors, dose response, SYBR Green, cherry-picked samples (AID 1159567); type: functional, cell-based
[16] = growth inhibition of yeast DHODH-expressing 3D7 parasites – SYBR Green, dry powder samples, dose response (AID 1159570); type: functional, cell-based;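 also: parasite growth measured after 72 hours of compound exposure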
[17] = toxicity to human HepG2 hepatoma cells – cell-based, plate reader, dry powder samples, cytotoxicity control, dose response (AID 1159569); type: functional;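 also: inhibitor potency with signal falling toward the positive control level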
[18] = Dd2 parasite growth inhibition in erythrocytes – SYBR Green, dry powder samples, set 9, dose response (AID 1159568); type: functional, cell-based
[19] = growth inhibition of PfATP4-mutant resistant parasites – NITD609-resistant line, SYBR Green, dry powder, dose response (AID 1159571); type: functional, cell-based;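 also: parasites synchronized at ring stage by sorbitol before testing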
[20] = Dd2 malaria parasite growth inhibition potency – SYBR Green, dry powder samples, dose response (AID 1159566); type: functional, cell-based;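 also: potency for growth inhibition with lower SYBR green DNA signal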

Sequence of Induced myeloid leukemia cell differentiation protein Mcl-1 (Q07820 whole entry): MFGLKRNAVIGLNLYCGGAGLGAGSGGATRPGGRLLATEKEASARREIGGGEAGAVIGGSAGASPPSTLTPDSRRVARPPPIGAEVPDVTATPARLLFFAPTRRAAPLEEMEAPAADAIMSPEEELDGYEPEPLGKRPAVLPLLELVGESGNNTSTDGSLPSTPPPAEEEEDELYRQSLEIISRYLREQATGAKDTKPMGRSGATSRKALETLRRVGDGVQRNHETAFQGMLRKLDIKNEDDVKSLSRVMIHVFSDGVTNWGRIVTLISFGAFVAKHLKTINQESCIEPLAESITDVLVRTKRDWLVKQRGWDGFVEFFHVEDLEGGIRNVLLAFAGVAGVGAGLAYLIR
Sequence of Protein Tat (P04608 whole entry): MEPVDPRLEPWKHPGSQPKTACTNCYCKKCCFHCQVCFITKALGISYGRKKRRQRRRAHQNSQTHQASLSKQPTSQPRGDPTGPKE
Sequence of Nonstructural protein 1 (Q194T2 whole entry): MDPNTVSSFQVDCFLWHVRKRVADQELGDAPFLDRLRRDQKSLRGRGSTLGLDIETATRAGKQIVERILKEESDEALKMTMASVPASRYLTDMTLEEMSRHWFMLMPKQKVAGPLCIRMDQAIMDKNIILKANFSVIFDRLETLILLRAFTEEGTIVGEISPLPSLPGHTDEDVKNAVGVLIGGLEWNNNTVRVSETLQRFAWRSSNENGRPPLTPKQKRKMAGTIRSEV
Sequence of Eukaryotic translation initiation factor 4E (P63073 whole entry): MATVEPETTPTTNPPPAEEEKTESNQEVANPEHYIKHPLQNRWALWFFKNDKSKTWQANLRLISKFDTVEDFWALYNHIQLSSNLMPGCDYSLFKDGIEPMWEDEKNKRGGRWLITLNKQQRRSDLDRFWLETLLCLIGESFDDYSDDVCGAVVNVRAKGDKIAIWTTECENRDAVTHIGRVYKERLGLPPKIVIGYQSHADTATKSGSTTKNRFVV

c1ccc(-c2cnc(-c3ccccn3)nn2)cc1
IC50 (Nonstructural protein 1): 18.9 µM (active)
AC50 [1]: 26 µM (active)

COCCNC(=O)c1cc(-c2cccs2)on1
EC50 (cells [2]): 70.8 µM (active)
EC50 (cells [3]): > 350 µM (not active)
AC50 [1]: 26 µM (active)

CCOC(=O)C1CCN(C(=O)Nc2ccc3nc(-c4ccco4)c(-c4ccco4)nc3c2)CC1
IC50 [4]: > 10 µM (not active)
IC50 [5]: 1.46 µM (active)
IC50 [6]: 21.2 µM (inactive)
IC50 (Protein Tat): 2.01 µM (inconclusive)

CO[C@H]1CN(C)C(=O)c2cc(NC(=O)Nc3cc(Cl)cc(Cl)c3)ccc2OC[C@@H](C)NC[C@@H]1C
AC50 [7]: > 52 µM (inactive)

COc1ccc(NC2=C(C)C(=O)c3ccccc3C2=O)cc1
AC50 [8]: 0.533 µM (active)
AC50 [9]: > 70 µM (inactive)
AC50 [10]: 14.3 µM (active)

COc1ccccc1Oc1ccc(S(=O)(=O)NCc2ccccn2)cc1
AC50 [11]: 25.1 µM (active)
IC50 [12]: > 100 µM (not active)
AC50 [13]: 14.8 µM (active)

COc1ccc2c3c(n(C)c2c1)[C@@H](CO)NCC31CN(Cc2ccc(-c3ccccn3)cc2)C1
AC50 [14]: 20.4 µM (active)
AC50 [15]: 1.66 µM (active)

CC(C)(C)c1ccc(NC2=CC(=O)c3ccccc3C2=O)cc1
AC50 [8]: 3.03 µM (active)
AC50 [9]: > 70 µM (inactive)
AC50 [10]: 13.9 µM (active)

Clc1ccccc1Cn1nnc2c(NCCN3CCOCC3)ncnc21
IC50 [12]: > 100 µM (not active)

CCCNC(=O)N1[C@H](C#N)[C@H](c2ccc(-c3cccc(OC)c3)cc2)[C@@H]1CO
AC50 [16]: 1.4 µM (active)
AC50 [17]: 90.7 µM (active)
AC50 [18]: 0.171 µM (active)
AC50 [19]: 0.278 µM (active)
AC50 [15]: 0.56 µM (active)
AC50 [20]: 0.168 µM (active)
AC50 [13]: 25.5 µM (active)
